# Where two headings read alike, the source gives them in different places.
# Key:
# NEP = target: T1, NEP (Homo sapiens, UniProt P08473); test: Cleavage of synthetic Aβ40 by NEP, LCMS (Example 7); type: biochemical; settings: peptide 9 μM
# T1 construct: purchased R & D systems 1182-ZNC-010
# Experimental: Synthetic Aβ40 (0.10 μg/μL) was added to a reaction mixture containing NEP (0.05 ng/μL) pre-incubated with SEQ ID NO:2 or scrambled control (9 μM) for 1 h at 37° C. Synthetic Aβ42 (0.05 μg/μL) was added to a reaction mixture containing NEP (0.15 ng/μL) preincubated with either scrambled control or SEQ ID NO:2 (9 μM) for 1 h at 37° C. Samples containing enzyme alone had only NEP buffer (Table 2). The cleavage reaction was allowed to continue in a thermomixer at 37° C. Aliquots of equal volume were taken over 24 h. Aliquots were immediately acidified with 0.1% trifluoroacetic acid (TFA) to terminate enzyme activity and snap frozen in dry ice. Samples were stored at −80° C. until analysed by LCMS.
# Samples were analysed by LC-MS/MS using a quadrupole TOF mass spectrometer (MicroTOFq, Bruker Daltonics, Bremen, Germany) coupled online with a 1200 series nano-HPLC (Agilent technologies, Santa Clara, CA, USA). Samples were injected onto a zorbax 300SB reversed phase trap column with 95% solvent A (0.1% formic acid) at a flow rate of 10 μL/minute. The peptides were eluted over a 10-min gradient to 70% solvent B (80% acetonitrile, 0.1% formic acid) and separated on a 15-cm, 75-μmID zorbax 300SB nanocolumn. The eluent was nebulised and ionised using the Bruker nano-ESI source with a capillary voltage of 4500 V, dry gas at 180° C., flow rate of 5 L/minute and nebuliser gas pressure at 300 mbar. The MS acquisition was in selected ion monitoring mode after selected ion extraction of the MS spectra. Prior to analysis, the qTOF mass spectrometer was calibrated using a 1:50 dilution tuning mix (Agilent technologies, Santa Clara, CA, USA). Data from MS run were processed in Skyline version 19.1.0.193 (Uni. Of Washington, WA, USA) to perform ion chromatogram extractions and peak integrations.
# [1] = tested on: Ang II-induced expression of IL-6 and Collagen III in EA.hy926 cells; test: Ang II-induced expression of IL-6 and Collagen III in EA.hy926 cells, western blotting (Example 9); type: cell-based; settings: 24 h
# Experimental: EA.hy926 cells (passage 40) were seeded at a density of 1×10^6 cells/mL. After 24 hours, cells were incubated overnight in reduced serum media. Cells were then treated over 24 h as follows: • 1. Vehicle control • 2. Ang II (10 nM) • 3. […] Ang II (10 nM)+rhACE2 (0.05 ng/μL) • 5.
# Following incubation, cells were lysed using lysis buffer (Thermo Fisher Scientific, Cat #89900) containing 1% protease inhibitor (Thermo Fisher Scientific, Cat #1861278). Cell lysate was centrifuged at 13,000 rpm for 10 min. Protein concentration in the supernatant was determined by NanoDrop (Thermo Fisher Scientific, Cat #ND-1000). Supernatants were stored at −30° C. until analysed.
# Samples were diluted in SDS-PAGE reducing sample buffer (Bio-Rad Laboratories, Cat #1610747; California, USA) containing 1% β-mercaptoethanol (Bio-Rad Laboratories, Cat #221610710) to reach a final concentration of […]. Prior to loading, samples were heated at 95° C. for 5 min. Samples were loaded into the wells alongside the molecular weight marker (Life Technologies, Cat #LC5800; California, USA). Electrophoresis was conducted at 200 V for 40 min in 1× running buffer. Following protein separation by SDS-PAGE, proteins were blotted onto nitrocellulose membranes at 100 V for 1 h in 1× transfer buffer. The membranes were then blocked in 5% skim milk in 1× Tris-buffered saline (TBST) containing 0.05% Tween 20 (Thermo Fisher Scientific, Cat #28352) for 1 h at room temperature. The membranes were incubated with IL-6 (1:500; Thermo Fisher Scientific, Cat #700480) or collagen III (1:500; Invitrogen, Cat #PA5-27828) primary antibodies while rocking at 4° C. overnight. Membranes were then probed with secondary antibody conjugated with horseradish peroxidase (HRP) (1:6000) for 1 h at room temperature. The HRP-labelled proteins were detected using chemiluminescence SuperSignal™ ECL Western Blotting Substrate (Thermo Fisher Scientific, Cat #34577) at 1:1 ratio. Beta-actin was used as a loading control. Protein bands were analysed using ImageJ (version 1.51) and band density was normalised with the respective beta-actin.
# SARS-CoV-2 = type: cell-based; settings: post-treatment, Vero cells; for IL-6 expression compared to PBS: normalised to GAPDH
# T1 sequence (P08473 whole entry): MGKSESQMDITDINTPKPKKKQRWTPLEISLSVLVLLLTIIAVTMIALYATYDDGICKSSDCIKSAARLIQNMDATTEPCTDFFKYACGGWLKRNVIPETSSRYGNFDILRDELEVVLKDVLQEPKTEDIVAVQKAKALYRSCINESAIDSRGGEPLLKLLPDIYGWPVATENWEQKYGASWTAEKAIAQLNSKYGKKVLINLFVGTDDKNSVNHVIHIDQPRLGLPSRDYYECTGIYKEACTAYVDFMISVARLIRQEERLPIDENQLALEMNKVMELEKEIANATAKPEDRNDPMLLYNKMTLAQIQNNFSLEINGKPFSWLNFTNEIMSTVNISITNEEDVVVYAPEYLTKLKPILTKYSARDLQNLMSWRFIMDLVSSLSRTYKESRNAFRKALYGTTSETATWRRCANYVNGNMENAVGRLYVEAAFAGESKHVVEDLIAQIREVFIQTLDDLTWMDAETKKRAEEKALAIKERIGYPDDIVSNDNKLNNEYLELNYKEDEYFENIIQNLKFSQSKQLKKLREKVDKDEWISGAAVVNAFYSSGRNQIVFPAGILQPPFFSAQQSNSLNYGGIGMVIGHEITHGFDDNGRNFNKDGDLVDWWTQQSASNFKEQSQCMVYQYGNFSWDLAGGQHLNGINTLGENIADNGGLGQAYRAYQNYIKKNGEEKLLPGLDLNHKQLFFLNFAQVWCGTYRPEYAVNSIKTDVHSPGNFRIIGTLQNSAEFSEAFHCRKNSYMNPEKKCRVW
substance,measurement,setting,value
"H-SLFELGKMIL-NH2 [SEQ ID NO:2, H2N-SLFELGKMIL-NH2]",decrease in Aβ1-21 peak area over 4-20 h,NEP; Aβ40 cleavage,7.5×10^7±1.3×10^7 arbitrary units
same,levels of Aβ1-21 (peak area) at 4 h,"NEP; Aβ40 cleavage, 4 h",7.9×10^7±1.3×10^7 arbitrary units
same,levels of Aβ1-21 (peak area) at 24 h,"NEP; Aβ40 cleavage, 24 h",4.1×10^6±4.8×10^5 arbitrary units
same,peak area corresponding to Aβ1-12 after 24 h,"NEP; Aβ40 cleavage, 24 h",1.3×10^8±7.9×10^6 arbitrary units
same,time at which breakdown of Aβ40 was complete,NEP; NEP 0.05 ng/μL,4 h
same,amount of Aβ40 remaining after 4 h (peak area),"NEP; NEP 0.05 ng/μL, Aβ40 0.10 μg/μL, 4 h",1.3×10^6±2.7×10^5 arbitrary units
same,"amount of Aβ40 remaining after 24 h, SEQ ID NO:2 versus scrambled control",NEP; 24 h,no significant difference
same,Collagen III expression compared to cells treated with Ang II alone,[1]; Ang II 10 nM plus 2A 26 μM and/or ACE2 0.05 ng/μL,significantly lower
same,IL-6 expression compared to cells treated with Ang II alone,[1]; Ang II 10 nM plus peptide 26 μM and/or rhACE2 0.05 ng/μL,significantly lower
same,Collagen III expression,"[1]; EA.hy926 cells, Ang II 10 nM alone, or Ang II and 2A (26 μM)",28±6%
same,viral RNA compared to PBS,SARS-CoV-2; 200 ng/μL,significantly reduced
same,IL-6 expression compared to PBS,SARS-CoV-2; 200 ng/μL,significantly reduced
same,viral RNA compared to PBS,SARS-CoV-2; 400 ng/μL,significantly reduced
same,viral titre compared to PBS,SARS-CoV-2; 400 ng/μL,significantly reduced
same,IL-6 expression compared to PBS,SARS-CoV-2; 400 ng/μL,significantly reduced

# — patent publication US20240002441A1, “PEPTIDES AND USES THEREOF IN MODULATION OF AMYLOID-BETA PROTEIN DEGRADING PROTEASES” (priority 2020, published 2024)
